“And” between values parts separate entries of the source, which are not always exact repeats. Equal entries are not always repeated. Inconclusive results and toxic doses are left out.
Test system: L1210 leukemia ip in BDF1 mice, survival T/C
Experiment: NCI In Vivo Anticancer Drug Screen. Data for tumor model L1210 Leukemia (intraperitoneal) in B6D2F1 (BDF1) mice
Conditions: endpoint: mean survival time, higher = longer survival
How it was run: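 Transplantable tumor model; survival measured in treated vs vehicle control mice. Value = treated/control.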

[1] = dose: 100.0 mg/kg/injection, schedule: Q04DX002 (ip), vehicle: saline with Tween-80
[2] = dose: 100.0 mg/kg/injection, schedule: Q01DX009 (ip), vehicle: Klucel (hydroxypropylcellulose) (HPC)
[3] = dose: 100.0 mg/kg/injection, schedule: Q04DX003 (ip), vehicle: Klucel (hydroxypropylcellulose) (HPC)
[4] = dose: 200.0 mg/kg/injection, schedule: Q01DX009 (ip), vehicle: Klucel (hydroxypropylcellulose) (HPC)
[5] = dose: 200.0 mg/kg/injection, schedule: Q04DX003 (ip), vehicle: Klucel (hydroxypropylcellulose) (HPC)
[6] = dose: 400.0 mg/kg/injection, schedule: Q01DX009 (ip), vehicle: Klucel (hydroxypropylcellulose) (HPC)
[7] = dose: 400.0 mg/kg/injection, schedule: Q04DX003 (ip), vehicle: Klucel (hydroxypropylcellulose) (HPC)
[8] = dose: 100.0 mg/kg/injection, schedule: Q01DX001 (ip), vehicle: saline
[9] = dose: 100.0 mg/kg/injection, schedule: Q01DX001 (ip), vehicle: other
[10] = dose: 200.0 mg/kg/injection, schedule: Q01DX001 (ip), vehicle: other
[11] = dose: 100.0 mg/kg/injection, schedule: Q01DX009 (ip), vehicle: saline with Tween-80
[12] = dose: 400.0 mg/kg/injection, schedule: Q01DX009 (ip), vehicle: saline with Tween-80

Structure (SMILES): CP(=O)(CCP(=O)(c1ccccc1)c1ccccc1)c1ccccc1 (stereo not given)
- T/C (dose: 25.0 mg/kg/injection, schedule: Q04DX002 (ip), vehicle: saline with Tween-80): 94 % of control
- T/C (dose: 50.0 mg/kg/injection, schedule: Q04DX002 (ip), vehicle: saline with Tween-80): 106 % of control
- T/C [1]: 97 % of control

Structure (SMILES): COc1ccc(O)c(/C=N/NC(N)=S)c1
- T/C [2]: 100 % of control
- T/C [3]: 115 % of control
- T/C [4]: 104 % of control
- T/C [5]: 96 % of control
- T/C [6]: 100 % of control
- T/C [7]: 97 % of control

Structure (SMILES): O=CC(O)C(O)C(O)CO (stereo not given) (tested in a mixture with another compound)
- T/C (dose: 100.0 mg/kg/injection, schedule: Q01DX001 (ip), vehicle: Klucel (hydroxypropylcellulose) (HPC)): 94 % of control
- T/C (dose: 200.0 mg/kg/injection, schedule: Q01DX001 (ip), vehicle: Klucel (hydroxypropylcellulose) (HPC)): 88 % of control
- T/C (dose: 400.0 mg/kg/injection, schedule: Q01DX001 (ip), vehicle: Klucel (hydroxypropylcellulose) (HPC)): 88 % of control

Structure (SMILES): NCCc1ccc(N)cc1
- T/C [8]: 106 % of control and 92 % of control
- T/C (dose: 100.0 mg/kg/injection, schedule: Q04DX003 (ip), vehicle: saline): 95 % of control
- T/C (dose: 200.0 mg/kg/injection, schedule: Q01DX001 (ip), vehicle: saline): 106 % of control and 89 % of control
- T/C (dose: 200.0 mg/kg/injection, schedule: Q04DX003 (ip), vehicle: saline): 98 % of control
- T/C (dose: 400.0 mg/kg/injection, schedule: Q01DX001 (ip), vehicle: saline): 97 % of control and 92 % of control
- T/C (dose: 400.0 mg/kg/injection, schedule: Q04DX003 (ip), vehicle: saline): 101 % of control

Structure (SMILES): CCOC1(OCC)CC2C(=O)CCCC21OC(C)=O (stereo not given)
- T/C (dose: 75.0 mg/kg/injection, schedule: Q04DX002 (ip), vehicle: saline): 111 % of control
- T/C (dose: 150.0 mg/kg/injection, schedule: Q04DX002 (ip), vehicle: saline): 105 % of control
- T/C (dose: 300.0 mg/kg/injection, schedule: Q04DX002 (ip), vehicle: saline): 101 % of control

Structure (SMILES): Nc1ncnc2nc(Cc3ccccc3)[nH]c12
- T/C (dose: 100.0 mg/kg/injection, schedule: Q01DX001 (ip), vehicle: gum acacia): 95 % of control
- T/C (dose: 200.0 mg/kg/injection, schedule: Q01DX001 (ip), vehicle: gum acacia): 109 % of control

Structure (SMILES): CCc1cc2c([nH]c3ccccc32)c(C)c1CCN(C)C
- T/C (dose: 50.0 mg/kg/injection, schedule: Q01DX001 (ip), vehicle: other): 101 % of control
- T/C [9]: 97 % of control
- T/C [10]: 95 % of control

Structure (SMILES): NC1=NC(CCc2ccccc2)N(c2ccc3ccccc3c2)C(N)=N1 (stereo not given)
- T/C (dose: 4.7 mg/kg/injection, schedule: Q01DX009 (ip), vehicle: saline sonified): 96 % of control
- T/C (dose: 9.4 mg/kg/injection, schedule: Q01DX009 (ip), vehicle: saline sonified): 103 % of control
- T/C (dose: 18.8 mg/kg/injection, schedule: Q01DX001 (ip), vehicle: saline): 91 % of control

Structure (SMILES): CN(C)C1C2(C)CCC(C2)C1(C)C (stereo not given)
- T/C (dose: 5.0 mg/kg/injection, schedule: Q01DX001 (ip), vehicle: carboxymethylcellulose (CMC)): 101 % of control
- T/C (dose: 10.0 mg/kg/injection, schedule: Q01DX001 (ip), vehicle: carboxymethylcellulose (CMC)): 98 % of control
- T/C (dose: 20.0 mg/kg/injection, schedule: Q01DX001 (ip), vehicle: carboxymethylcellulose (CMC)): 98 % of control
- T/C (dose: 40.0 mg/kg/injection, schedule: Q01DX001 (ip), vehicle: carboxymethylcellulose (CMC)): 95 % of control

Structure (SMILES): CCN=C(c1ccc(NC(=O)c2ccc(C(=O)Nc3ccc(C(=NCC)N(CC)C(=O)NC)cc3)cc2)cc1)N(CC)C(=O)NC
- T/C (dose: 6.25 mg/kg/injection, schedule: Q01DX015 (ip), vehicle: methylcellulose (MC)): 93 % of control
- T/C (dose: 12.5 mg/kg/injection, schedule: Q01DX015 (ip), vehicle: methylcellulose (MC)): 100 % of control

Structure (SMILES): C/C=C/C(=O)Nc1cccc(OC(=O)NC(C)(C)C)c1
- T/C [11]: 91 % of control
- T/C [12]: 86 % of control

Structure (SMILES): OCCC1(CCO)CCCCC1
- T/C (dose: 25.0 mg/kg/injection, schedule: Q01DX009 (ip), vehicle: saline with Tween-80): 99 % of control
- T/C (dose: 25.0 mg/kg/injection, schedule: Q04DX003 (ip), vehicle: saline with Tween-80): 114 % of control
- T/C (dose: 50.0 mg/kg/injection, schedule: Q01DX009 (ip), vehicle: saline with Tween-80): 95 % of control
- T/C (dose: 50.0 mg/kg/injection, schedule: Q04DX003 (ip), vehicle: saline with Tween-80): 104 % of control
- T/C [11]: 95 % of control and 108 % of control

Structure (SMILES): CCC1CCC(Cc2ccncc2)CC1 (stereo not given)
- T/C [3]: 98 % of control
- T/C [5]: 92 % of control

Structure (SMILES): Nc1nc(N)c2cc(CNc3ccc(C(=O)NC(CC(=O)O)CC(=O)O)cc3)ccc2n1
- T/C (dose: 6.25 mg/kg/injection, schedule: Q01DX009 (ip), vehicle: saline): 123 % of control
- T/C (dose: 6.3 mg/kg/injection, schedule: Q01DX009 (ip), vehicle: carboxymethylcellulose (CMC)): 167 % of control
- T/C (dose: 10.0 mg/kg/injection, schedule: Q01DX009 (ip), vehicle: other): 157 % of control
- T/C (dose: 12.5 mg/kg/injection, schedule: Q01DX009 (ip), vehicle: carboxymethylcellulose (CMC)): 152 % of control
- T/C (dose: 25.0 mg/kg/injection, schedule: Q01DX009 (ip), vehicle: carboxymethylcellulose (CMC)): 180 % of control
- T/C (dose: 25.0 mg/kg/injection, schedule: Q01DX009 (ip), vehicle: other): 158 % of control
- T/C (dose: 50.0 mg/kg/injection, schedule: Q01DX001 (ip), vehicle: saline): 109 % of control
- T/C (dose: 50.0 mg/kg/injection, schedule: Q01DX009 (ip), vehicle: carboxymethylcellulose (CMC)): 117 % of control
- T/C (dose: 50.0 mg/kg/injection, schedule: Q01DX009 (ip), vehicle: saline): 216 % of control
- T/C [9]: 196 % of control
- T/C [8]: 114 % of control
- T/C (dose: 100.0 mg/kg/injection, schedule: Q01DX009 (ip), vehicle: carboxymethylcellulose (CMC)): 105 % of control
- T/C (dose: 100.0 mg/kg/injection, schedule: Q01DX009 (ip), vehicle: other): 101 % of control
- T/C (dose: 100.0 mg/kg/injection, schedule: Q01DX009 (ip), vehicle: saline): 103 % of control
- T/C (dose: 133.0 mg/kg/injection, schedule: Q01DX001 (ip), vehicle: other): 175 % of control
- T/C [10]: 208 % of control
- T/C (dose: 200.0 mg/kg/injection, schedule: Q01DX009 (ip), vehicle: carboxymethylcellulose (CMC)): 88 % of control
- T/C (dose: 200.0 mg/kg/injection, schedule: Q01DX009 (ip), vehicle: other): 86 % of control
- T/C (dose: 200.0 mg/kg/injection, schedule: Q01DX009 (ip), vehicle: saline): 97 % of control
- T/C (dose: 300.0 mg/kg/injection, schedule: Q01DX001 (ip), vehicle: other): 166 % of control
- T/C (dose: 300.0 mg/kg/injection, schedule: Q01DX001 (ip), vehicle: saline): 122 % of control
- T/C (dose: 400.0 mg/kg/injection, schedule: Q01DX001 (ip), vehicle: other): 107 % of control
- T/C (dose: 600.0 mg/kg/injection, schedule: Q01DX001 (ip), vehicle: saline): 152 % of control

Structure (SMILES): CCOC(=O)c1ccc(NC(=S)NC(Cc2ccccc2)c2ccccc2)cc1 (stereo not given)
- T/C [1]: 98 % of control
- T/C (dose: 200.0 mg/kg/injection, schedule: Q04DX002 (ip), vehicle: saline with Tween-80): 95 % of control
- T/C (dose: 400.0 mg/kg/injection, schedule: Q04DX002 (ip), vehicle: saline with Tween-80): 95 % of control

Structure (SMILES): O=C(Nc1ccc(Cl)c(Cl)c1)c1ccc2c(c1)C(=O)OC2=O
- T/C [11]: 106 % of control
- T/C (dose: 200.0 mg/kg/injection, schedule: Q01DX009 (ip), vehicle: saline with Tween-80): 106 % of control
- T/C [12]: 106 % of control

Structure (SMILES): NC(=O)NOCC1NC(=O)C(CONC(N)=O)NC1=O (stereo not given)
- T/C [2]: 93 % of control
- T/C [3]: 104 % of control
- T/C [4]: 102 % of control
- T/C [5]: 89 % of control
- T/C [6]: 96 % of control
- T/C [7]: 95 % of control

Structure (SMILES): CCCCCCCC(C)NCCCO (stereo not given)
- T/C (dose: 75.0 mg/kg/injection, schedule: Q01DX001 (ip), vehicle: saline): 90 % of control
